# According to PubChem BioAssay (NCI):
#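 Step 1: Grow cells in 96-well plates. Step 2: Expose to compound for 48 hours at 5 concentrations. Step 3: Interpolate endpoints linearly; if unreached, use highest concentration. TGI is the concentration that stops growth completely.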 *1 amine or outer side, *2 acyl side, *3 side chain or, on linkers, in order; H or OH if unused. Where a SMILES comes first, the peptide text is derived from it. [ ]: non-standard residue; d: D form. The star is where a group is joined. Phe(4-NO2) = N[CH](Cc1ccc([N+](=O)[O-])cc1)C(=O)O; X32 = C[C@H](N[*:1])C(=O)C(C)(C)C(=O)[*:2]; Hmpa(2S,3S) = CC[C@H](C)[C@H](O)C(=O)O; NMeY = CN[C@@H](Cc1ccc(O)cc1)C(=O)O; NMeL = CN[C@@H](CC(C)C)C(=O)O; NMeV = CN[C@H](C(=O)O)C(C)C; Boc = CC(C)(C)OC(=O)*; βAla = NCCC(=O)O
# Key:
# Assay in all cases: growth of human tumour cells (NCI), 48 h
# HL-60(TB) leukemia = system: HL-60(TB) leukemia
# PC-3 prostate = system: PC-3 prostate
# HCC-2998 colon = system: HCC-2998 colon
# OVCAR-8 ovarian = system: OVCAR-8 ovarian
# LOX IMVI melanoma = system: LOX IMVI melanoma
# NCI-H23 lung = system: NCI-H23 lung
# OVCAR-4 ovarian = system: OVCAR-4 ovarian
# A549 NSCLC = system: A549 NSCLC
# CCRF-CEM leukemia = system: CCRF-CEM leukemia
# NCI/ADR-RES ovarian = system: NCI/ADR-RES ovarian
# EKVX NSCLC = system: EKVX NSCLC
SMILES,TGI (HL-60(TB) leukemia) [µM],TGI (PC-3 prostate) [µM],TGI (HCC-2998 colon) [µM],TGI (OVCAR-8 ovarian) [µM],TGI (LOX IMVI melanoma) [µM],TGI (NCI-H23 lung) [µM],TGI (OVCAR-4 ovarian) [µM],TGI (A549 NSCLC) [µM],TGI (CCRF-CEM leukemia) [µM],TGI (NCI/ADR-RES ovarian) [µM],TGI (EKVX NSCLC) [µM]
COC(=O)C(Cc1c[nH]c2ccccc12)NC(=O)C(Cc1c[nH]c2ccccc12)NC(=O)C(Cc1c[nH]c2ccccc12)NC(=O)C(Cc1c[nH]c2ccccc12)NC(=O)C(Cc1c[nH]c2ccccc12)NC(=O)C(Cc1c[nH]c2ccccc12)NC(=O)C(Cc1c[nH]c2ccccc12)NC(=O)C(Cc1c[nH]c2ccccc12)NC(=O)OC(C)(C)C (stereo unspecified) (Boc-WWWWWWWW-OMe; configuration not given here),53.5,> 100,> 100,> 100,> 100,> 100,> 100,> 100,96.2,–,–
O=c1/c(=C/c2ccc(-c3ccc(Cl)cc3Cl)o2)sc2n1[C@@H](c1ccc(Cl)cc1)C=C(c1cc(F)c(Cl)cc1Cl)N=2,–,> 100,56.2,> 100,> 100,> 100,> 100,> 100,–,> 100,–
Cc1nc2c(=O)n(C)ncc2[nH]1,> 100,> 100,–,> 100,–,> 100,–,> 100,> 100,> 100,> 100
CCCC(=O)OC1C(CO)OC(n2cc(F)c(=O)[nH]c2=O)C1F (stereo unspecified),> 100,> 100,–,> 100,> 100,> 100,> 100,> 100,> 100,> 100,> 100
Nc1nc2c3nc(Nc4ccccc4)sc3nc(=O)n2c2sc(Nc3ccccc3)nc12,> 100,–,> 100,> 100,–,> 100,> 100,> 100,> 100,–,> 100
C=C1CCC([N+](=O)[O-])[C@](C)(N=O)CC[C@@H]2C1CC2(C)C (stereo partly specified),> 100,> 100,–,48,41.7,33.3,84.6,36,> 100,82,40.4
C=CCc1cccc2cc(C(=O)Nc3ccccn3)c(=N)oc12,> 100,> 100,> 100,> 100,> 100,> 100,> 100,> 100,> 100,> 100,–
CCOC(=O)c1c(N2CCOCC2)[nH]c(=O)c(C(c2ccco2)c2c(O)c(C(=O)OCC)c(N3CCOCC3)[nH]c2=O)c1O,–,> 100,> 100,> 100,> 100,> 100,> 100,> 100,> 100,> 100,> 100
O=C1c2ccc(O)c(O)c2C(=O)c2c(O)ccc(O)c21,–,–,47.9,80.8,44.3,93.8,6.53,50.3,56.7,–,67.4
CCN1CCC(O)(c2ccc(Cl)cc2)C(C(=O)c2ccc(Cl)cc2)C1 (stereo unspecified),> 100,–,> 100,> 100,> 100,> 100,> 100,> 100,> 100,–,> 100
COc1ccc2c(c1)CCc1c-2n(CCN2CCCCC2)c2ccc(OC)cc12,–,> 100,> 100,> 100,> 100,> 100,> 100,> 100,> 100,> 100,> 100
C=C1C2C[C@@H]3O[C@H]4C[C@H]5O[C@@]6(C[C@@H]7O[C@]8(C[C@H](C)[C@@H]9O[C@@H]%10CC(CO)O[C@@H]%10C[C@@H]9O8)C[C@H](C)[C@@H]7O6)C[C@H]5O[C@H]4[C@H](C)[C@H]3OC(=O)C[C@H]3CC[C@@H]4OC5[C@H]6O[C@]7(CC[C@H]8CC(=C)[C@H](CC[C@@H](C[C@H]1C)O2)O8)CC6O[C@@H]5[C@@H](O7)[C@H]4O3 (stereo partly specified),–,> 1,–,0.00513,> 0.433,0.00124,> 1,0.408,> 1,> 1,> 1
C=CC(Cl)(CBr)CCC(Br)C(C)(C)Cl (stereo unspecified),19.3,35,28.8,31.5,–,31.3,34.1,89.3,29,49.8,42.4
OC(c1cc(C23CC4CC(CC(C4)C2)C3)nc2c(Cl)cc(Cl)cc12)C1CCCCN1 (stereo unspecified),3.59,3.09,–,3.18,–,–,–,3.08,–,–,3.59
CC(C)NC(=O)CN1CCN(c2c(O)c3c(c(O)c2Cl)C(=O)C=CC3=O)CC1,0.642,4.75,10,3.81,1.92,3.02,3.12,20.3,–,10.7,12
Cc1ccc2c(c1)-c1nc(N)c(C#N)c(-c3ccccc3)c1CCS2(=O)=O,–,> 100,> 100,56.5,> 100,> 100,41.8,> 100,–,> 100,–
C(=C\c1ccco1)/c1cccc(/C=C/c2ccco2)n1,> 50,–,> 50,> 50,> 50,> 50,> 50,> 50,> 50,> 50,> 50
CC(=O)OCC1OC(n2c(-c3ccc(C)cc3)cc(-c3ccccc3)c(C#N)c2=S)C(OC(C)=O)C(OC(C)=O)C1OC(C)=O (stereo unspecified),> 100,> 100,> 100,> 100,> 100,> 100,> 100,> 100,–,> 100,> 100
CNC(=O)CCC(NC(=O)OC(C)(C)C)C(=O)NC(Cc1ccc([N+](=O)[O-])cc1)C(=O)NCC(=O)NC (stereo unspecified) (Boc-Glu(NHMe)-[Phe(4-NO2)]-Gly-NHMe; configuration not given here),> 100,> 100,> 100,> 100,> 100,> 100,> 100,> 100,–,> 100,> 100

SMILES,TGI (HL-60(TB) leukemia) [µM],TGI (PC-3 prostate) [µM],TGI (HCC-2998 colon) [µM],TGI (OVCAR-8 ovarian) [µM],TGI (LOX IMVI melanoma) [µM],TGI (NCI-H23 lung) [µM],TGI (OVCAR-4 ovarian) [µM],TGI (A549 NSCLC) [µM],TGI (CCRF-CEM leukemia) [µM],TGI (NCI/ADR-RES ovarian) [µM],TGI (EKVX NSCLC) [µM]
N#C/C(N)=C(\C#N)NC(=O)C(=O)N/C(C#N)=C(\N)C#N,–,> 100,> 100,> 100,> 100,> 100,> 100,> 100,> 100,> 100,> 100
COCN1C(=O)[C@@H]2CCCN2C(=O)c2cc(N)ccc21,–,> 100,–,> 100,> 100,> 100,> 100,> 100,–,> 100,> 100
CC(=O)O[C@H]1C(=O)[C@@]2(C)C(C(OC(=O)c3ccccc3)C3[C@@H](O)C(OC(=O)[C@@H](O)[C@H](NC(=O)c4ccccc4)c4ccc(C(F)(F)F)cc4)C(C)=C1C3(C)C)[C@]1(OC(C)=O)CO[C@@H]1C[C@@H]2O (stereo partly specified),> 25,–,> 25,> 25,> 25,> 25,–,> 25,> 25,–,> 25
COc1ccc(/C=C2\CCC(C)C3=C2N=c2s/c(=C/c4cccc(Br)c4)c(=O)n2C3c2ccc(OC)c(OC)c2)cc1OC (stereo unspecified),> 100,> 100,–,> 100,> 100,–,> 100,> 100,> 100,–,> 100
CCOC(=O)CCC(NC(=O)c1ccc(OCc2ccc3nc(-c4ccccc4)c(Cl)nc3c2)cc1)C(=O)OCC (stereo unspecified),> 31.6,–,> 31.6,25.3,> 100,> 31.6,> 31.6,> 100,> 31.6,> 31.6,> 31.6
COc1cc(/C=c2\sc3n(c2=O)C(c2ccc(Cl)cc2)C2=C(CCCC2C)N=3)cc(OC)c1OC (stereo unspecified),> 100,> 100,–,> 100,> 100,–,–,> 100,> 100,–,> 100
Cc1cc2c([nH]c3ccccc32)c2c1OC(C)(C)C1C3CC(C)(C)Oc4c(C)cc5c6ccccc6n(c5c43)C21 (stereo unspecified),> 100,–,> 100,> 100,> 100,> 100,> 100,> 100,> 100,–,> 100
N#Cc1ccc(-n2c3ccccc3c3ccc4c(c32)C(=O)C=CC4=O)cc1,> 100,8.98,18.3,> 58.7,> 25.4,24.4,13,38.4,–,53.9,5.58
CN(C)c1nc(Cl)c2c(-c3ccccc3)c(-c3ccccc3)oc2n1,36,–,> 100,> 100,> 100,> 100,> 100,> 100,> 100,> 100,> 100
O=C(NCCCCCCNC(=O)c1cc(-c2ccccc2)nc2ccccc12)c1cc(-c2ccccc2)nc2ccccc12,> 100,> 100,–,> 100,> 100,> 100,> 100,> 100,> 100,> 100,> 100
CCN(CC)C(=O)C(C)n1cc(C)c(=O)[nH]c1=O (stereo unspecified),> 100,–,> 100,> 100,> 100,> 100,> 100,> 100,> 100,–,> 100
COI1NC(=O)c2ccccc21,> 100,> 100,–,> 100,> 100,> 100,> 100,> 100,> 100,> 100,> 100
CCOC(=O)c1ccc(NCC#CCN2CCCCC2)cc1,> 100,> 100,–,–,> 100,> 100,> 100,> 100,> 100,> 100,> 100
COc1cc(CNNC(N)=S)cc(OC)c1OC,> 100,> 100,> 100,> 100,> 100,> 100,–,> 100,> 100,> 100,> 100
C[C@@H]1CC[C@@H]2[C@@H](C1)O[C@@H]([C@H](C)OCc1ccccc1)SC2(C)C,–,> 100,31.8,> 100,32.8,> 100,> 100,> 100,–,75.5,> 100
O=C(O)CN1C(=O)C(Cc2ccc(O)cc2)N=C(c2cccc(O)c2)c2ccccc21 (stereo unspecified),> 100,> 100,–,> 100,> 100,–,> 100,> 100,–,–,> 100
"CC[C@H](C)[C@@H]1OC(=O)CCNC(=O)[C@@H](C)NC(=O)C(C)(C)C(=O)[C@H](C)NC(=O)[C@H](Cc2ccc(OC)cc2)N(C)C(=O)[C@H](C(C)C)N(C)C(=O)CNC(=O)[C@H](CC(C)C)N(C)C(=O)CNC1=O (cyclo(G[NMeL]G[NMeV][NMeY](Me)[X32][dA][βAla][Hmpa(2S,3S)]))",–,> 31.5,> 25.1,23.7,10.7,> 50,3.51,> 50,2.2,> 50,22.7
O=C(NNC(=S)NC1CCCCC1)c1csc(NC(=S)NC2CCCCC2)n1,> 100,24.9,14.5,15,18.9,45.2,–,23.3,> 100,13.3,> 100
CC(C)(C)OC(=O)N1C(c2cccnc2)=CC[C@H]2C3CC=C(c4cccnc4)[C@@]3(C)CC[C@@H]21 (stereo partly specified),14,19.3,–,25,8.41,12.8,19.3,12.2,25.8,34.9,10.3
